Assay results: US8415349B2, “Dicycloazaalkane derivatives, preparation processes and medical uses thereof” (Jiangsu Hansoh Pharmaceuticals Co., Ltd., priority 2008, dated 2013)
Structures can show the parent of a compound that is named as a salt.

Columns and labels:
DPP-IV = molecular target: T1, DPP-IV (Homo sapiens, UniProt P27487); assay: Assay for DPP-IV inhibitory activity (DPP-IV-Glo luminescence); format: biochemical; conditions: purified DPP-IV enzyme
T1 construct: purchased Calbiochem 317630
T1 sequence (P27487 whole entry): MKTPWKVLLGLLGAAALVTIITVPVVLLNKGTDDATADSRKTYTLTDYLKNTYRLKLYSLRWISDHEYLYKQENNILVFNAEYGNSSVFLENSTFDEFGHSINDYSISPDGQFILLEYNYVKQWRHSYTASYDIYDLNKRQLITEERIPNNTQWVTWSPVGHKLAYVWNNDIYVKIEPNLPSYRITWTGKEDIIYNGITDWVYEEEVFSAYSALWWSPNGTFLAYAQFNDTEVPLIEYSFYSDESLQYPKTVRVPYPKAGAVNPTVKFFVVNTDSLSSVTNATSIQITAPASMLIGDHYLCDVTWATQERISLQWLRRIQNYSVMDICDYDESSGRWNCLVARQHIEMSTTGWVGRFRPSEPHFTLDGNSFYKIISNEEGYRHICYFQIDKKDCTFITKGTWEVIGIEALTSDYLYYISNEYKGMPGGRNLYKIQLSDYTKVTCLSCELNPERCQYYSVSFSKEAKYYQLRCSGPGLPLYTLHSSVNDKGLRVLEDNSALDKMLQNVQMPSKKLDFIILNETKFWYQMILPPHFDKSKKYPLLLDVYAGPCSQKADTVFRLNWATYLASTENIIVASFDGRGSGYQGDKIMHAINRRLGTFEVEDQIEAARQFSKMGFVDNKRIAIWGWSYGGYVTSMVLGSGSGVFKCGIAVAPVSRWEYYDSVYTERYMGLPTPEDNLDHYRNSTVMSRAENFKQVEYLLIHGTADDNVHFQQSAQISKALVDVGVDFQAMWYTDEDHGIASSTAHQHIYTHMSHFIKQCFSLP
Excerpt: 2. […] 3. […] 4. […] 5. […] 7. […] 9. […] 10. […] 11. […] 12.

DPP-VIII = molecular target: T2, DPP-VIII (Homo sapiens, UniProt Q6V1X1); assay: Assay for DPP-VIII inhibitory activity (luminescence); format: biochemical; conditions: purified DPP-VIII enzyme
T2 construct: purchased Bioscience 80080
T2 sequence (Q6V1X1 whole entry): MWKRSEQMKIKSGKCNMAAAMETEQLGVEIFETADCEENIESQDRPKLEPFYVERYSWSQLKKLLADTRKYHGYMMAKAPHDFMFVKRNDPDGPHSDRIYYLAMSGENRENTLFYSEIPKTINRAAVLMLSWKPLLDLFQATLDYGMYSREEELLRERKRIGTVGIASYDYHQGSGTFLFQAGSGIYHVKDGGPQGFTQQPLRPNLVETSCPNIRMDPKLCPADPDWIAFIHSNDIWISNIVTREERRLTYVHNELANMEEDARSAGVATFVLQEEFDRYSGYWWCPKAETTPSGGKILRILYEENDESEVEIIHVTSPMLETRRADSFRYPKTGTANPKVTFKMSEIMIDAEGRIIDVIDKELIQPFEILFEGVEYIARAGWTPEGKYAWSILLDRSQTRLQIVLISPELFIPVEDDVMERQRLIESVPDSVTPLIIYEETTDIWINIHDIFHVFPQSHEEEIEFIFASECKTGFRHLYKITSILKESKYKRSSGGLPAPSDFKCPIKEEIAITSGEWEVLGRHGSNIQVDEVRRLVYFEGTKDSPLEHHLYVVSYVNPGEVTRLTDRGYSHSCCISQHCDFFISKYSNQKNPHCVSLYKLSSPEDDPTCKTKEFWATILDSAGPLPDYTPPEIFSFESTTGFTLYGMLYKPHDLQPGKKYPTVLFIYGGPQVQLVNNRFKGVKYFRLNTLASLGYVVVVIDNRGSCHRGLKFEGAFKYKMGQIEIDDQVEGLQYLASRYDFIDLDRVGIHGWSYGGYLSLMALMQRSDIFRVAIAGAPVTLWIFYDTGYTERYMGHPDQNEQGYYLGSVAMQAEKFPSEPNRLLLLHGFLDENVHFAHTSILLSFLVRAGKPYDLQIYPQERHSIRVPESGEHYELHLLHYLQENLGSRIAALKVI

DPP-IX = molecular target: T3, DPP-IX (Homo sapiens, UniProt Q86TI2); assay: Assay for DPP-IX inhibitory activity (luminescence); format: biochemical; conditions: purified DPP-IX enzyme
T3 construct: purchased Bioscience 80090
T3 sequence (Q86TI2 whole entry): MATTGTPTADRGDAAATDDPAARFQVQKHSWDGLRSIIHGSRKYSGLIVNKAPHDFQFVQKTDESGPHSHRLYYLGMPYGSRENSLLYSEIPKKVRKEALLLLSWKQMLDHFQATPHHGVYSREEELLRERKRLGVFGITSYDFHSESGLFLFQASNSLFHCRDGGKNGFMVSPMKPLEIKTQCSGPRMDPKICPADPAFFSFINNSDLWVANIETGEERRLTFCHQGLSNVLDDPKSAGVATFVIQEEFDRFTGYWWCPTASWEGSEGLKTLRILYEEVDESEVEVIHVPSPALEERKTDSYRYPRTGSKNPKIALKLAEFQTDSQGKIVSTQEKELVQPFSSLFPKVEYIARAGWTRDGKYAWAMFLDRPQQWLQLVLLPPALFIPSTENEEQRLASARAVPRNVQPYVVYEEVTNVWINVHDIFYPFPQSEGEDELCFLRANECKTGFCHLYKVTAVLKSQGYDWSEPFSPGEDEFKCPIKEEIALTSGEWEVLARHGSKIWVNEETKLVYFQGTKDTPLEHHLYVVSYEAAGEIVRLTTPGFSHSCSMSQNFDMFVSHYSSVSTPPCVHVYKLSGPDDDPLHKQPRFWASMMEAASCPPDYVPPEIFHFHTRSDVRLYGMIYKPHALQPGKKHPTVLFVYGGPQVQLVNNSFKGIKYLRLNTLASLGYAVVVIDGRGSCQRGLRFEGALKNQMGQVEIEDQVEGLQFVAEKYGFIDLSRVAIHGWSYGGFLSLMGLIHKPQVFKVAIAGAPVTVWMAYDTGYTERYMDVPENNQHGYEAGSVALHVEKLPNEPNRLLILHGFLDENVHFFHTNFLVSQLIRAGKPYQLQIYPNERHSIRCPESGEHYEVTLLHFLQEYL

normal ICR mice = assay: Oral glucose tolerance test in normal ICR mice (hypoglycemic effect); format: in vivo; conditions: 2.5 g/kg glucose, 30 min after glucose
Method: Species, strains: ICR mice […] The volume is 20 mL/kg. […] The volume is 20 mL/kg. 1. The effects of compounds on blood glucose levels in normal ICR mice Normal male ICR mice were randomly grouped according to weights, 6 mice in each group. The groups included a black control group as well as different doses of the treatment groups as follows: Test 1: Blank control: double-distilled water by gavage. Group 1: the compound of Example 1, 1 mg/kg by gavage; […] Test 2: Blank control: double-distilled water by gavage. Group 1: the compound of Example 1, 1 mg/kg by gavage; […] 2. Serum Glucose Determination: […] The blank tube was used to set the instrument to zero, the colorimetric assay was performed at OD 505 nm. Serum glucose concentration (BG, mmol/l)=ODsample tube/ODstandard tube×5.55 Data Processing and Statistical Analysis: 1. Mean±SD and Student-t test were used in statistical analysis. 2.

KKAy mice = assay: Oral glucose tolerance test in type II diabetes KKAy mice; format: in vivo; conditions: 30 min after glucose
Method: Species, Strains: KKAy mice Preparation Method: […] The volume is 10 mL/kg. The Effects of the Compounds on Blood Glucose in KKay Mice Normal KKAy mice had been fasted for 6 hours, and then were randomly grouped according to the weights and fasting blood glucose, 5 mice in each group. The groups included a blank control group as well as different doses of the treatment groups as follows: Test 1: male 0704 Blank control: double-distilled water by gavage […] Test 2: female 0816 Blank control: double-distilled water by gavage […] Test 3: male 0712 Black control: double-distilled water by gavage […] Test 4: female 0907 Black control: double-distilled water by gavage […] 3. Mean±SD and Student-t test, or Anova was used in statistical analysis. 4.

[1] = Observation of water solubility when preparing dosing liquid; format: physicochemical; conditions: double distilled water; visible particles at 0.5 mg/mL, dissolved at low concentration
Method: Preparation Method: Compounds were weighed accurately, and then dissolved in double distilled water. The suspensions of 0.5, 0.15 and 0.05 mg/mL were prepared, respectively.

[2] = Test 1, male ICR mice, high dose 10 mg/kg by gavage
[3] = Test 1, male ICR mice, low dose 1 mg/kg by gavage
[4] = Test 1, male ICR mice, middle dose 3 mg/kg by gavage
[5] = Test 2, male ICR mice, high dose 10 mg/kg by gavage
[6] = Test 2, male ICR mice, low dose 1 mg/kg by gavage
[7] = Test 2, male ICR mice, middle dose 3 mg/kg by gavage
[8] = female KKAy mice, 10 mg/kg by gavage, 2.5 g/kg glucose
[9] = male KKAy mice, 10 mg/kg by gavage, 1.5 g/kg glucose
[10] = male KKAy mice, 30 mg/kg by gavage, 1.5 g/kg glucose

Compound	IC50 (DPP-IV) [nM]	IC50 (DPP-VIII) [nM]	IC50 (DPP-IX) [nM]	percentage of blood glucose decreased vs control group at 30 minutes (normal ICR mice; [2]) [%]	percentage of blood glucose decreased vs control group at 30 minutes (normal ICR mice; [3]) [%]	percentage of blood glucose decreased vs control group at 30 minutes (normal ICR mice; [4]) [%]	percentage of blood glucose decreased vs control group at 30 minutes (normal ICR mice; [5]) [%]	percentage of blood glucose decreased vs control group at 30 minutes (normal ICR mice; [6]) [%]	percentage of blood glucose decreased vs control group at 30 minutes (normal ICR mice; [7]) [%]	percentage of blood glucose decreased vs control group at 30 minutes (KKAy mice; female KKAy mice, 3 mg/kg by gavage, 2.5 g/kg glucose) [%]	percentage of blood glucose decreased vs control group at 30 minutes (KKAy mice; [8]) [%]	percentage of blood glucose decreased vs control group at 30 minutes (KKAy mice; [9]) [%]	percentage of blood glucose decreased vs control group at 30 minutes (KKAy mice; [10]) [%]	water solubility (observation) [1]
CN(C)C(=O)N1C[C@@H]2C[C@@](C)(NCC(=O)N3C[C@@H](F)C[C@H]3C#N)C[C@@H]2C1 [Example 18, 5-[2-((2S,4S)-2-Cyano-4-fluoro-pyrrolidin-1-yl)-2-oxo-ethylamino]-5-methyl-hexahydro-cyclopenta[c]pyrrole-2-carboxylic acid dimethylamide p-toluenesulfonate]	39	3320	380	–	–	–	–	–	–	–	–	–	–	–
CN(C)C(=O)N1C[C@H]2C[C@@H](NCC(=O)N3CCC[C@H]3C#N)C[C@H]2C1 [Example 1, cis-5-[2-((S)-2-Cyano-pyrrolidin-1-yl)-2-oxo-ethylamino]-N,N-dimethyl-hexahydro-cyclopenta[c]pyrrole-2-carboxamide hydrochloride]	–	–	–	31.85	19.16	22.85	32.05	26.10	30.24	40.63	24.68	16.22	17.15	poorly water-soluble
CN(C)C(=O)N1C[C@@H]2C[C@](C)(NCC(=O)N3C[C@@H](F)C[C@H]3C#N)C[C@@H]2C1 [Example 13, 5-[2-((2S,4S)-2-Cyano-4-fluoro-pyrrolidin-1-yl)-2-oxo-ethylamino]-N,N,5-tirmethyl-hexahydro-cyclopenta[c]pyrrole-2-carboxamide tartrate]	10	371	516	–	–	–	–	–	–	–	–	–	–	–
COC(=O)N1C[C@H]2C[C@@H](NCC(=O)N3CCC[C@H]3C#N)C[C@H]2C1 [Example 2, hydrochloride]	–	–	–	26.93	25.54	25.92	27.75	24.51	26.96	–	21.55	13.79	12.23	–
